Test systems include ACHN; CAKI-1; IGROV-1; MCF7; MDA-MB-231; MDA-MB-435; Malme-3M; OVCAR-5; PC-3; RPMI-8226; RXF 393; SK-MEL-28; SK-MEL-2; SK-OV-3; SN12C; SNB-19; SR; TK-10; CCRF-CEM.
Assay in all cases: inhibition of tumour cell growth, NCI panel, 48 h

The structures appear in SMILES notation.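 Five compound concentrations were applied to cells in 96-well plates for 48 hours; endpoints were derived by simple linear interpolation of the resulting dose-response curve. Here, GI50 denotes the concentration required for 50% inhibition of growth.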 The source made the active and inactive calls. Rule as the data show it: active = GI50 up to about 1.1 µM and inactive = higher.

For `CN(C)CC(C)(C)CN1c2ccccc2Sc2ccccc21`, the GI50 in the assay on ACHN is 15.1 µM (inactive); in the assay on CAKI-1, 12.1 µM (inactive); in the assay on IGROV-1, 14.9 µM (inactive); in the assay with MCF7 it was 16.4 µM (inactive); in the assay on MDA-MB-231 it was 12 µM (inactive); in the assay with MDA-MB-435, 13.4 µM (inactive). The GI50 with Malme-3M was 14.8 µM (inactive); with OVCAR-5 it was 14.8 µM (inactive); with PC-3, 12.9 µM (inactive); in the assay with RPMI-8226, 16.4 µM (inactive); with RXF 393, 2.12 µM (inactive); in the assay with SK-MEL-28 it was 13.5 µM (inactive). The GI50 in the assay on SK-MEL-2 is 15.4 µM (inactive); with SK-OV-3, 13.2 µM (inactive); with SN12C it was 12.9 µM (inactive); in the assay on SNB-19, 15.6 µM (inactive); with SR, 10.1 µM (inactive); in the assay with TK-10, 13.9 µM (inactive).

`CCOc1ccc2ccc3cccnc3c2n1`: the GI50 with ACHN was 40.6 µM (inactive); in the assay on CAKI-1 it was > 100 µM (inactive); in the assay on CCRF-CEM, 59 µM (inactive); in the assay with IGROV-1 it was 38.5 µM (inactive); in the assay on MCF7, 18.4 µM (inactive); in the assay with MDA-MB-231, 38.4 µM (inactive). Further, the GI50 is 49.3 µM (inactive) with MDA-MB-435; 97.1 µM (inactive) with Malme-3M; 55.6 µM (inactive) in the assay with OVCAR-5; 34.2 µM (inactive) in the assay on PC-3; 23.2 µM (inactive) in the assay with RPMI-8226; 68.9 µM (inactive) in the assay on RXF 393. Moreover, the GI50 with SK-MEL-28 is > 100 µM (inactive); with SK-MEL-2 it was 81.7 µM (inactive); in the assay on SK-OV-3, 43.4 µM (inactive); in the assay on SN12C, > 100 µM (inactive); in the assay with SNB-19, > 100 µM (inactive); in the assay with SR, 18.9 µM (inactive). The GI50 in the assay on TK-10 is 34.2 µM (inactive).

As for `CCc1n[nH]c(=O)n1CCCCCCCCn1c(CC)n[nH]c1=O`, the GI50 in the assay with ACHN, in the assay with CAKI-1, with CCRF-CEM, in the assay on IGROV-1, in the assay on MCF7 and in the assay with MDA-MB-231 was > 100 µM (inactive) throughout. Moreover, the GI50 in the assay on MDA-MB-435, in the assay with Malme-3M, in the assay with OVCAR-5, in the assay on PC-3, in the assay with RPMI-8226 and in the assay on RXF 393 was > 100 µM (inactive) each time. The GI50 in the assay with SK-MEL-2, with SK-OV-3, with SN12C, in the assay on SNB-19, in the assay with SR and in the assay with TK-10 was > 100 µM (inactive) in each case.

For the molecule `N#CC1=C(N)OC2=C(CSc3ccccc32)C1c1ccc(Br)cc1` (stereo not drawn), the GI50 in the assay on CAKI-1 is 4.49 µM (inactive); in the assay with CCRF-CEM, 2.72 µM (inactive); with IGROV-1 it was 6.97 µM (inactive); with MCF7, 3.42 µM (inactive); in the assay with MDA-MB-231, 11.7 µM (inactive); with MDA-MB-435, 2.6 µM (inactive). Also, the GI50 with Malme-3M was 13.4 µM (inactive); in the assay on OVCAR-5, 11.6 µM (inactive); in the assay with PC-3, 4.42 µM (inactive); with RPMI-8226 it was 2.07 µM (inactive); in the assay on RXF 393, 4.04 µM (inactive); in the assay on SK-MEL-28, 12.9 µM (inactive). Also, the GI50 with SK-MEL-2 is 5.7 µM (inactive); in the assay on SK-OV-3 it was 13.4 µM (inactive); in the assay with SN12C, 6.19 µM (inactive); in the assay on SNB-19, 17.7 µM (inactive); with SR, 2.54 µM (inactive); in the assay with TK-10, 13.6 µM (inactive).

Consider `N#CC(c1ccccc1)c1cccc2ccccc12` (stereo not drawn), for which the GI50 is 44.8 µM (inactive) in the assay with ACHN; 17.4 µM (inactive) with CAKI-1; 19.9 µM (inactive) in the assay on IGROV-1; 33.6 µM (inactive) in the assay with MCF7; 48.6 µM (inactive) with MDA-MB-231; 20.2 µM (inactive) in the assay on MDA-MB-435. Moreover, the GI50 was 21.5 µM (inactive) with Malme-3M; 85.1 µM (inactive) with OVCAR-5; 22.5 µM (inactive) in the assay with PC-3; 25.7 µM (inactive) with RPMI-8226; 69.7 µM (inactive) in the assay on SK-MEL-28; 25.6 µM (inactive) in the assay on SK-MEL-2. Also, the GI50 in the assay with SN12C was 68.4 µM (inactive); in the assay on SNB-19 it was 53.5 µM (inactive); in the assay with SR, 12.3 µM (inactive); in the assay on TK-10, 42.4 µM (inactive).

As to `COc1cc([C@@H]2c3cc4c(cc3[C@@H](Nc3ccccc3C(=O)c3ccccc3)[C@H]3COC(=O)[C@H]23)OCO4)cc(OC)c1OC`, the GI50 in the assay with ACHN was 0.535 µM (active); in the assay with CAKI-1, 0.741 µM (active); in the assay on CCRF-CEM it was 0.347 µM (active); in the assay on IGROV-1, 0.836 µM (active); in the assay with MCF7 it was 0.379 µM (active); in the assay on MDA-MB-231, 1.81 µM (inactive). The GI50 in the assay with MDA-MB-435 was 0.27 µM (active); in the assay with Malme-3M it was 0.458 µM (active); in the assay on OVCAR-5 it was 0.885 µM (active); in the assay with PC-3, 0.622 µM (active); with RPMI-8226, 0.381 µM (active); in the assay on RXF 393, 0.459 µM (active). The GI50 is 0.472 µM (active) in the assay on SK-MEL-28; > 100 µM (inactive) in the assay on SK-MEL-2; 1.9 µM (inactive) in the assay on SN12C; 1.37 µM (inactive) in the assay on SNB-19; 0.332 µM (active) in the assay on SR; > 100 µM (inactive) in the assay with TK-10.

As to `Nn1c(SCC(=O)NCc2ccccc2)nc2ccccc2c1=O`, the GI50 was 40.6 µM (inactive) with ACHN; 84.1 µM (inactive) in the assay on CAKI-1; 13.7 µM (inactive) with CCRF-CEM; 53.3 µM (inactive) in the assay with IGROV-1; 52.1 µM (inactive) in the assay with MCF7; 57.8 µM (inactive) in the assay on MDA-MB-231. The GI50 in the assay with MDA-MB-435 was 45.8 µM (inactive); in the assay with Malme-3M, 51.2 µM (inactive); with OVCAR-5 it was > 100 µM (inactive); in the assay on PC-3 it was 54.7 µM (inactive); with RPMI-8226, 40.8 µM (inactive); in the assay on RXF 393 it was 34.1 µM (inactive). Also, the GI50 in the assay on SK-MEL-28 is 92.5 µM (inactive); with SK-MEL-2, 76.7 µM (inactive); in the assay on SN12C, > 100 µM (inactive); in the assay with SNB-19 it was 67 µM (inactive); in the assay with SR, 21.1 µM (inactive); in the assay with TK-10, 41.5 µM (inactive).

Turning to `COC(=O)c1c(OC(C)=O)ccc2c1c1c(n2C)C(=O)c2ccccc2C1=O`, the GI50 in the assay on ACHN was 15.6 µM (inactive); in the assay on CAKI-1, 20.7 µM (inactive); in the assay with IGROV-1 it was 3.86 µM (inactive); in the assay with MCF7, 18.7 µM (inactive); in the assay with MDA-MB-231, 32.8 µM (inactive); with MDA-MB-435, 23.9 µM (inactive). In addition, the GI50 with Malme-3M is 23.9 µM (inactive); with OVCAR-5, 34.3 µM (inactive); in the assay on PC-3 it was 27.2 µM (inactive); in the assay with RPMI-8226 it was 8.15 µM (inactive); with RXF 393 it was 37.1 µM (inactive); in the assay with SK-MEL-28, 31.8 µM (inactive). The GI50 in the assay with SK-MEL-2 is 23.2 µM (inactive); with SK-OV-3, 12.9 µM (inactive); with SN12C it was 39.6 µM (inactive); in the assay on SNB-19 it was 33.7 µM (inactive); in the assay on SR, 31.1 µM (inactive); in the assay on TK-10, 31 µM (inactive).

Turning to `Nc1ncnc2c1ncn2C1OC(CO)=CC1O` (stereo not drawn), the GI50 with ACHN, in the assay with CAKI-1, in the assay on CCRF-CEM, in the assay on IGROV-1, with MCF7 and in the assay with MDA-MB-231 was > 37.5 µM (inactive) in each case. For the same molecule, the GI50 in the assay on MDA-MB-435, with Malme-3M, in the assay on OVCAR-5, with PC-3, with RPMI-8226 and in the assay on RXF 393 was > 37.5 µM (inactive) in each case. Also, the GI50 in the assay with SK-MEL-28, with SK-MEL-2, in the assay with SK-OV-3, in the assay with SN12C, in the assay with SNB-19 and in the assay with SR was > 37.5 µM (inactive) each time. In addition, the GI50 with TK-10 was > 37.5 µM (inactive).

As to `O=C1NC2CCCCC2N=C1CC(=O)c1ccc(Br)cc1` (stereo not drawn), the GI50 in the assay on ACHN was 49.1 µM (inactive); in the assay on CAKI-1 it was > 100 µM (inactive); in the assay with CCRF-CEM, 5.2 µM (inactive); in the assay on IGROV-1 it was 5.22 µM (inactive); in the assay on MCF7, 18 µM (inactive); with MDA-MB-231, 16.2 µM (inactive). In addition, the GI50 in the assay on MDA-MB-435 was > 100 µM (inactive); with Malme-3M, > 100 µM (inactive); with OVCAR-5, > 100 µM (inactive); in the assay on PC-3 it was 32.7 µM (inactive); in the assay on RPMI-8226, 2.83 µM (inactive); with RXF 393 it was 19.5 µM (inactive). For the same molecule, the GI50 in the assay with SK-MEL-28 is > 100 µM (inactive); in the assay with SK-MEL-2 it was 70.6 µM (inactive); in the assay with SK-OV-3, 28.2 µM (inactive); in the assay with SN12C it was 27.7 µM (inactive); with SNB-19, > 100 µM (inactive); in the assay on SR, > 100 µM (inactive). Moreover, the GI50 with TK-10 is 74.5 µM (inactive).

Turning to `CCC[C@H]1C(=O)N=C(N)N1C(=O)OCc1ccccc1`, the GI50 with ACHN, with CAKI-1, in the assay with IGROV-1, with MCF7, in the assay with MDA-MB-231 and with MDA-MB-435 was > 100 µM (inactive) in each case. Also, the GI50 in the assay with Malme-3M, in the assay with OVCAR-5, with PC-3, in the assay on RPMI-8226, with RXF 393 and with SK-MEL-28 was > 100 µM (inactive) each time. Besides, the GI50 in the assay on SK-MEL-2, in the assay on SN12C, in the assay on SNB-19, with SR and in the assay on TK-10 was > 100 µM (inactive) throughout.
